Results reported in paper PMC9848257, “Design and synthesis of novel rigid dibenzo[b,f]azepines through ring closure technique as promising anticancer candidates against leukaemia and acting as selective topoisomerase II inhibitors and DNA intercalators” (Journal of Enzyme Inhibition and Medicinal Chemistry, 2023).

Columns and labels:
Assay type in all cases: cell-based
LOX IMVI = experiment: NCI-60 one-dose screen, LOX IMVI; settings: Homo sapiens, melanoma, single dose 10 μM, read-out: Growth inhibition %
Description: (§1) Anti-proliferative effects of the counterparts 4a–g and 5a–g were screened against 60 human cancer cell lines, following the Developmental Therapeutics Program protocol, National Cancer Institute[35].
(§2) The anti-tumour activity of the fourteen synthesised congeners was investigated at the NCI against a panel of 60 cancer cell lines (NCI-60 Cell One-Dose Screen). The tested dibenzo[b,f]azepine derivatives were screened at a single dose level (10 μM), Table 1.

OVCAR-4 = experiment: NCI-60 one-dose screen, OVCAR-4; settings: Homo sapiens; OVCAR-4, ovarian cancer; single dose 10 μM; read-out: Growth inhibition %
Description: as §1, §2

M14 = experiment: NCI-60 one-dose screen, M14; settings: Homo sapiens; M14, melanoma; single dose 10 μM; read-out: Growth inhibition %
Description: as §1, §2

SF-539 = experiment: NCI-60 one-dose screen, SF-539; settings: Homo sapiens; SF-539, CNS cancer; single dose 10 μM; read-out: Growth inhibition %
Description: as §1, §2

A498 = experiment: NCI-60 one-dose screen, A498; settings: Homo sapiens; A498, renal cancer; single dose 10 μM; read-out: Growth inhibition %
Description: as §1, §2

HT29 = experiment: NCI-60 one-dose screen, HT29; settings: Homo sapiens, HT-29; HT29, colon cancer; single dose 10 μM; read-out: Growth inhibition %
Description: as §1, §2

ACHN = experiment: NCI-60 one-dose screen, ACHN; settings: Homo sapiens, renal cancer, single dose 10 μM, read-out: Growth inhibition %
Description: as §1, §2

CCRF-CEM = experiment: NCI-60 one-dose screen, CCRF-CEM; settings: Homo sapiens, leukaemia, single dose 10 μM, read-out: Growth inhibition %
Description: as §1, §2

HOP-62 = experiment: NCI-60 one-dose screen, HOP-62; settings: Homo sapiens; HOP-62, non-small cell lung cancer; single dose 10 μM; read-out: Growth inhibition %
Description: as §1, §2

HCT-15 = experiment: NCI-60 one-dose screen, HCT-15; settings: Homo sapiens; HCT-15, colon cancer; single dose 10 μM; read-out: Growth inhibition %
Description: as §1, §2

CAKI-1 = experiment: NCI-60 one-dose screen, CAKI-1; settings: Homo sapiens; CAKI-1, renal cancer; single dose 10 μM; read-out: Growth inhibition %
Description: as §1, §2

KM12 = experiment: NCI-60 one-dose screen, KM12; settings: Homo sapiens; KM12, colon cancer; single dose 10 μM; read-out: Growth inhibition %
Description: as §1, §2

UACC-257 = experiment: NCI-60 one-dose screen, UACC-257; settings: Homo sapiens; UACC-257, melanoma; single dose 10 μM; read-out: Growth inhibition %
Description: as §1, §2

SK-MEL-5 = experiment: NCI-60 one-dose screen, SK-MEL-5; settings: Homo sapiens; SK-MEL-5, melanoma; single dose 10 μM; read-out: Growth inhibition %
Description: as §1, §2

HS 578 T = experiment: NCI-60 one-dose screen, HS 578 T; settings: Homo sapiens, breast cancer, single dose 10 μM, read-out: Growth inhibition %
Description: as §1, §2

MALME-3M = experiment: NCI-60 one-dose screen, MALME-3M; settings: Homo sapiens, melanoma, single dose 10 μM, read-out: Growth inhibition %
Description: as §1, §2

OVCAR-3 = experiment: NCI-60 one-dose screen, OVCAR-3; settings: Homo sapiens; OVCAR-3, ovarian cancer; single dose 10 μM; read-out: Growth inhibition %
Description: as §1, §2

K-562 = experiment: NCI-60 one-dose screen, K-562; settings: Homo sapiens, K562; K-562, leukaemia; single dose 10 μM; read-out: Growth inhibition %
Description: as §1, §2

SF-295 = experiment: NCI-60 one-dose screen, SF-295; settings: Homo sapiens; SF-295, CNS cancer; single dose 10 μM; read-out: Growth inhibition %
Description: as §1, §2

NCI-H23 = experiment: NCI-60 one-dose screen, NCI-H23; settings: Homo sapiens; NCI-H23, non-small cell lung cancer; single dose 10 μM; read-out: Growth inhibition %
Description: as §1, §2

NCI-H226 = experiment: NCI-60 one-dose screen, NCI-H226; settings: Homo sapiens; NCI-H226, non-small cell lung cancer; single dose 10 μM; read-out: Growth inhibition %
Description: as §1, §2

SK-MEL-2 = experiment: NCI-60 one-dose screen, SK-MEL-2; settings: Homo sapiens; SK-MEL-2, melanoma; single dose 10 μM; read-out: Growth inhibition %
Description: as §1, §2

RXF 393 = experiment: NCI-60 one-dose screen, RXF 393; settings: Homo sapiens; RXF 393, renal cancer; single dose 10 μM; read-out: Growth inhibition %
Description: as §1, §2

MDA-MB-231-ATCC = experiment: NCI-60 one-dose screen, MDA-MB-231-ATCC; settings: Homo sapiens, breast cancer, single dose 10 μM, read-out: Growth inhibition %
Description: as §1, §2

NCI-H322M = experiment: NCI-60 one-dose screen, NCI-H322M; settings: Homo sapiens, non-small cell lung cancer, single dose 10 μM, read-out: Growth inhibition %
Description: as §1, §2

SK-OV-3 = experiment: NCI-60 one-dose screen, SK-OV-3; settings: Homo sapiens; SK-OV-3, ovarian cancer; single dose 10 μM; read-out: Growth inhibition %
Description: as §1, §2

T-47D = experiment: NCI-60 one-dose screen, T-47D; settings: Homo sapiens, T47D, breast cancer, single dose 10 μM, read-out: Growth inhibition %
Description: as §1, §2

SW-620 = experiment: NCI-60 one-dose screen, SW-620; settings: Homo sapiens; SW-620, colon cancer; single dose 10 μM; read-out: Growth inhibition %
Description: as §1, §2

SF-268 = experiment: NCI-60 one-dose screen, SF-268; settings: Homo sapiens; SF-268, CNS cancer; single dose 10 μM; read-out: Growth inhibition %
Description: as §1, §2

A549-ATCC = experiment: NCI-60 one-dose screen, A549-ATCC; settings: Homo sapiens, non-small cell lung cancer, single dose 10 μM, read-out: Growth inhibition %
Description: as §1, §2

HL-60(TB) = experiment: NCI-60 one-dose screen, HL-60(TB); settings: Homo sapiens, leukaemia, single dose 10 μM, read-out: Growth inhibition %
Description: as §1, §2

MDA-MB-468 = experiment: NCI-60 one-dose screen, MDA-MB-468; settings: Homo sapiens; MDA-MB-468, breast cancer; single dose 10 μM; read-out: Growth inhibition %
Description: as §1, §2

DU-145 = experiment: NCI-60 one-dose screen, DU-145; settings: Homo sapiens; DU-145, prostate cancer; single dose 10 μM; read-out: Growth inhibition %
Description: as §1, §2

COLO 205 = experiment: NCI-60 one-dose screen, COLO 205; settings: Homo sapiens; COLO 205, colon cancer; single dose 10 μM; read-out: Growth inhibition %
Description: as §1, §2

OVCAR-8 = experiment: NCI-60 one-dose screen, OVCAR-8; settings: Homo sapiens; OVCAR-8, ovarian cancer; single dose 10 μM; read-out: Growth inhibition %
Description: as §1, §2

SMILES: C1=Cc2ccccc2N(c2nnc(Cc3ccccc3)o2)c2ccccc21 [Compound 5g, 2-Benzyl-5-(5H-dibenzo[b,f]azepin-5-yl)-1,3,4-oxadiazole]
- inhibition at 10 µM (LOX IMVI): < 10%
- inhibition at 10 µM (OVCAR-4): < 10%
- inhibition at 10 µM (M14): < 10%
- inhibition at 10 µM (SF-539): 11.5%
- inhibition at 10 µM (A498): < 10%
- inhibition at 10 µM (HT29): < 10%
- inhibition at 10 µM (ACHN): 27.7%
- inhibition at 10 µM (CCRF-CEM): 15.6%
- inhibition at 10 µM (HOP-62): 18.4%
- inhibition at 10 µM (HCT-15): 4.03%
- inhibition at 10 µM (CAKI-1): < 10%
- inhibition at 10 µM (KM12): < 10%
- inhibition at 10 µM (UACC-257): 19.1%
- inhibition at 10 µM (SK-MEL-5): < 10%
- inhibition at 10 µM (HS 578 T): 24.1%
- inhibition at 10 µM (MALME-3M): < 10%
- inhibition at 10 µM (OVCAR-3): 12.3%
- inhibition at 10 µM (K-562): 14.9%
- inhibition at 10 µM (SF-295): < 10%
- inhibition at 10 µM (NCI-H23): < 10%
- inhibition at 10 µM (NCI-H226): < 10%
- inhibition at 10 µM (SK-MEL-2): < 10%
- inhibition at 10 µM (RXF 393): < 10%
- inhibition at 10 µM (MDA-MB-231-ATCC): < 10%
- inhibition at 10 µM (NCI-H322M): < 10%
- inhibition at 10 µM (SK-OV-3): < 10%
- inhibition at 10 µM (T-47D): 12%
- inhibition at 10 µM (SW-620): 19.7%
- inhibition at 10 µM (SF-268): 10.7%
- inhibition at 10 µM (A549-ATCC): 24.7%
- inhibition at 10 µM (HL-60(TB)): 10.6%
- inhibition at 10 µM (MDA-MB-468): 15.6%
- inhibition at 10 µM (DU-145): 16.3%
- inhibition at 10 µM (COLO 205): < 10%
- inhibition at 10 µM (OVCAR-8): 16.5%

SMILES: O=C(NNC(=O)N1c2ccccc2C=Cc2ccccc21)c1ccc([N+](=O)[O-])cc1 [Compound 4e, N′-(4-Nitrobenzoyl)-5H-dibenzo[b,f]azepine-5-carbohydrazide]
- inhibition at 10 µM (LOX IMVI): < 10%
- inhibition at 10 µM (OVCAR-4): < 10%
- inhibition at 10 µM (M14): < 10%
- inhibition at 10 µM (SF-539): < 10%
- inhibition at 10 µM (A498): < 10%
- inhibition at 10 µM (HT29): < 10%
- inhibition at 10 µM (ACHN): < 10%
- inhibition at 10 µM (CCRF-CEM): < 10%
- inhibition at 10 µM (HOP-62): < 10%
- inhibition at 10 µM (HCT-15): < 10%
- inhibition at 10 µM (CAKI-1): < 10%
- inhibition at 10 µM (KM12): < 10%
- inhibition at 10 µM (UACC-257): < 10%
- inhibition at 10 µM (SK-MEL-5): < 10%
- inhibition at 10 µM (HS 578 T): < 10%
- inhibition at 10 µM (MALME-3M): < 10%
- inhibition at 10 µM (OVCAR-3): < 10%
- inhibition at 10 µM (K-562): < 10%
- inhibition at 10 µM (SF-295): < 10%
- inhibition at 10 µM (NCI-H23): < 10%
- inhibition at 10 µM (NCI-H226): < 10%
- inhibition at 10 µM (SK-MEL-2): < 10%
- inhibition at 10 µM (RXF 393): < 10%
- inhibition at 10 µM (MDA-MB-231-ATCC): < 10%
- inhibition at 10 µM (NCI-H322M): < 10%
- inhibition at 10 µM (SK-OV-3): < 10%
- inhibition at 10 µM (T-47D): < 10%
- inhibition at 10 µM (SW-620): < 10%
- inhibition at 10 µM (SF-268): < 10%
- inhibition at 10 µM (A549-ATCC): < 10%
- inhibition at 10 µM (HL-60(TB)): < 10%
- inhibition at 10 µM (MDA-MB-468): < 10%
- inhibition at 10 µM (DU-145): < 10%
- inhibition at 10 µM (COLO 205): < 10%
- inhibition at 10 µM (OVCAR-8): < 10%

SMILES: Cc1ccc(C(=O)NNC(=O)N2c3ccccc3C=Cc3ccccc32)cc1 [Compound 4d, N′-(4-Methylbenzoyl)-5H-dibenzo[b,f]azepine-5-carbohydrazide]
- inhibition at 10 µM (LOX IMVI): < 10%
- inhibition at 10 µM (OVCAR-4): < 10%
- inhibition at 10 µM (M14): < 10%
- inhibition at 10 µM (SF-539): < 10%
- inhibition at 10 µM (A498): < 10%
- inhibition at 10 µM (HT29): < 10%
- inhibition at 10 µM (ACHN): < 10%
- inhibition at 10 µM (CCRF-CEM): < 10%
- inhibition at 10 µM (HOP-62): < 10%
- inhibition at 10 µM (HCT-15): < 10%
- inhibition at 10 µM (CAKI-1): < 10%
- inhibition at 10 µM (KM12): < 10%
- inhibition at 10 µM (UACC-257): < 10%
- inhibition at 10 µM (SK-MEL-5): < 10%
- inhibition at 10 µM (HS 578 T): < 10%
- inhibition at 10 µM (MALME-3M): < 10%
- inhibition at 10 µM (OVCAR-3): < 10%
- inhibition at 10 µM (K-562): < 10%
- inhibition at 10 µM (SF-295): < 10%
- inhibition at 10 µM (NCI-H23): < 10%
- inhibition at 10 µM (NCI-H226): < 10%
- inhibition at 10 µM (SK-MEL-2): < 10%
- inhibition at 10 µM (RXF 393): < 10%
- inhibition at 10 µM (MDA-MB-231-ATCC): < 10%
- inhibition at 10 µM (NCI-H322M): < 10%
- inhibition at 10 µM (SK-OV-3): < 10%
- inhibition at 10 µM (T-47D): < 10%
- inhibition at 10 µM (SW-620): < 10%
- inhibition at 10 µM (SF-268): < 10%
- inhibition at 10 µM (A549-ATCC): < 10%
- inhibition at 10 µM (HL-60(TB)): < 10%
- inhibition at 10 µM (MDA-MB-468): < 10%
- inhibition at 10 µM (DU-145): < 10%
- inhibition at 10 µM (COLO 205): < 10%
- inhibition at 10 µM (OVCAR-8): < 10%
